The record followed here is patent US5516784A, “Anti-HIV (AIDS) agents” (Schering Corporation, priority 1994, dated 1996).

pIC50: −log10 of the molar value. Some results are limits rather than exact numbers.

The target of one experiment is T1, HIV1 protease (Human immunodeficiency virus type 1 group M subtype B, UniProt P04585). Briefly: Test 3: inhibition of proteolytic activity of HIV-1 protease by scintillation proximity assay (SPA). The class given is biochemical. Particulars: IC50 >500 nM; read-out: Enzyme Assays (SPA) % inhibition. An excerpt: TEST 3-INHIBITION OF PROTEOLYTIC ACTIVITY OF HIV-1-PROTEASE AS DETERMINED BY SCINTILLATION […] ASSAY (SPA).
This is an alternative assay to test #1 and is used to determine the ability of compounds to inhibit the HIV1 protease activity. The SPA assay for HIV1 protease has been developed by Amersham Corporation, Arlington Heights, Ill., and is available for commercial use. In this system the substrate for HIV1 protease, AcN-(I^125)[…]SPA bead, is cleaved by the HIV1 protease at the Phe-Phe bond releasing the I^125 -labelled peptide fragment from the SPA bead. This event causes removal of detectable signal from the microsphere bead indicated by reduction in radioactivity (measured in CPM), which is proportional to the proteolytic activity. The substrate, and the HIV 1 protease were incubated in presence of synthetic compound in various dilutions at room temperature for 40 minutes, and the concentration of the compound required to inhibit the proteolytic activity by 50% (IC50) was determined.
For orientation: inhibition means the change of the read-out against control, counted positive when it falls. For the molecule `CC(C)(C)NC(=O)c1ccccc1OC[C@H](O)[C@H](Cc1ccccc1)NC(=O)[C@H](CC(N)=O)NC(=O)c1nc2ccccc2nc1O` [Compound 63], the inhibition at 0.5 µM stood at 35%.

As for `CC(C)(C)NC(=O)c1ccccc1OC[C@@H](O)[C@H](Cc1ccccc1)NC(=O)[C@H](CC(N)=O)NC(=O)c1nc2ccccc2nc1O` [Compound 64], the inhibition at 0.5 µM was 36%.

As to `CC(C)(C)NC(=O)c1ccccc1OC[C@@H](O)[C@H](Cc1ccccc1)NC(=O)[C@H](CC(N)=O)NC(=O)c1cnc2nc(N)nc(O)c2n1` [Compound 68], the inhibition at 0.5 µM was 36%.

Still in this experiment, the particulars now being: SPA; room temperature, 40 minutes; read-out: Enzyme Assays (SPA) IC50.
As a reminder, the pIC50 is the negative decadic logarithm of the IC50, by convention in mol/L. For `CC(C)(C)NC(=O)c1ccccc1OC[C@@H](O)[C@H](Cc1ccccc1)NC(=O)[C@H](CC(N)=O)NC(=O)c1cnc2ccccc2n1` [Compound 60], the pIC50 is 7.32.

For the molecule `CC(C)(C)NC(=O)c1ccccc1OC[C@H](O)[C@H](Cc1ccccc1)NC(=O)[C@H](CC(N)=O)NC(=O)c1cc(O)c2ccccc2n1` [Compound 61], the pIC50 is 6.39.

As for `CC(C)(C)NC(=O)c1ccccc1OC[C@H](O)[C@H](Cc1ccccc1)NC(=O)[C@H](CC(N)=O)NC(=O)c1nc2ccccc2nc1O` [Compound 63], the pIC50 is less than 6.30.

On to `CC(C)(C)NC(=O)c1ccccc1OC[C@@H](O)[C@H](Cc1ccccc1)NC(=O)[C@H](CC(N)=O)NC(=O)c1nc2ccccc2nc1O` [Compound 64], for which the pIC50 is less than 6.30.

Consider `CC(C)(C)NC(=O)c1ccccc1OC[C@H](O)[C@H](Cc1ccccc1)NC(=O)[C@H](CC(N)=O)NC(=O)c1cnnc2ccccc12` [Compound 65], for which the pIC50 is 6.30.

Consider `CC(C)(C)NC(=O)c1ccccc1OC[C@@H](O)[C@H](Cc1ccccc1)NC(=O)[C@H](CC(N)=O)NC(=O)c1cnnc2ccccc12` [Compound 66], for which the pIC50 is 6.91.

Regarding `CC(C)(C)NC(=O)c1ccccc1OC[C@@H](O)[C@H](Cc1ccccc1)NC(=O)[C@H](CC(N)=O)NC(=O)c1cnc2nc(N)nc(O)c2n1` [Compound 68], the pIC50 was less than 6.30.

For `Cc1c(C)c2c(c(C)c1O)CCC(C)(C(=O)N[C@@H](CC(N)=O)C(=O)N[C@@H](Cc1ccccc1)[C@@H](O)COc1ccccc1C(=O)NC(C)(C)C)O2` (stereo partly drawn) [Compound 71], the pIC50 was 6.61.

Consider `CC(C)(C)NC(=O)c1ccccc1OC[C@@H](O)[C@H](CCc1ccccc1)NC(=O)[C@H](CC(N)=O)NC(=O)c1ccc2ccccc2n1` [Compound 76], for which the pIC50 was less than 6.30.

`CCC(C)[C@H](NC(=O)OC(C)(C)C)C(=O)N[C@@H](Cc1ccccc1)[C@H](O)CSc1ccccc1C(=O)NC(C)(C)C` (stereo partly drawn) [IN 7]: the negative logarithm of the IC50 (pIC50) was less than 6.30.

Turning to `CC(C)(C)NC(=O)c1ccccc1OC[C@@H](O)[C@H](Cc1ccccc1)NC(=O)[C@H](CC(N)=O)NC(=O)OCc1ccccc1` [IN 8], the pIC50 was 6.90.

Still in this experiment, the particulars now being: read-out: Enzyme Assays (SPA) IC50.
In the case of `CC(C)(C)NC(=O)c1ccccc1OC[C@H](O)[C@H](Cc1ccccc1)NC(=O)[C@H](CC(N)=O)NC(=O)c1ccc2c(c1)C(=O)c1ccccc1C2=O` [Compound 69], the pIC50 was 7.08.

Turning to `CC(C)(C)NC(=O)c1ccccc1OC[C@@H](O)[C@H](Cc1ccccc1)NC(=O)[C@H](CC(N)=O)NC(=O)c1ccc2c(c1)C(=O)c1ccccc1C2=O` [Compound 70], the pIC50 is 7.26.

`CC(C)(C)NC(=O)c1ccccc1OC[C@H](O)[C@H](Cc1ccccc1)NC(=O)[C@H](CC(N)=O)NS(=O)(=O)c1ccc2ccccc2c1` [Compound 73]: the pIC50 is 6.37.

A further experiment has as its target T1, HIV1 protease. Briefly: Test 1: inhibition of proteolytic activity of HIV-1 protease (HPLC). Format: biochemical. On the set-up: proteolytic activity of HIV-1 protease. The settings on record: HPLC; HIV Substrate III; read-out: Enzyme Assays (HPLC) IC50. Here is the method:
TEST I-INHIBITION OF PROTEOLYTIC ACTIVITY OF HIV-1-PROTEASE
The ability of compounds of the invention to inhibit the proteolytic activity of HIV-1 protease was determined by using the method of Louis, et al., Biochem. Biophys. Res. Comm. 159:87-94, (1989), which is herein incorporated by reference. In using the method of Louis et al., HIV Substrate III, His-Lys-Ala-Arg-VaI-Leu-pNO2 Phe-Glu-Ala-Nle-Ser-NH2 purchased from Bachem Bioscience, Inc. Philadelphia, Pa. was used in place of the nonapeptide substrate […]amide.
Consider `NC(=O)C[C@H](NC(=O)c1ccc2ccccc2n1)C(=O)N[C@@H](Cc1ccccc1)[C@@H](O)CSc1ncccn1` [Compound 1], for which the negative-log IC50 (pIC50) is less than 7.30.

Consider `CCCCNC(=O)c1ccccc1S(=O)(=O)C[C@H](O)[C@H](Cc1ccccc1)NC(=O)[C@H](CC(N)=O)NC(=O)c1ccc2ccccc2n1` [Compound 9], for which the pIC50 is less than 6.30.

Turning to `NC(=O)C[C@H](NC(=O)c1ccc2ccccc2n1)C(=O)N[C@@H](Cc1ccccc1)[C@@H](O)CSC1CCCC1C(=O)Nc1ccccc1` (stereo partly drawn) [Compound 16], the negative-log IC50 (pIC50) is less than 6.30.

As to `NC(=O)C[C@H](NC(=O)c1ccc2ccccc2n1)C(=O)N[C@@H](Cc1ccccc1)[C@@H](O)CSC1CCCC1C(=O)Nc1ccccc1` (stereo partly drawn) [Compound 18], the negative logarithm of the IC50 (pIC50) was less than 6.30.

For `CC(C)(C)NC(=O)CCSC[C@H](O)[C@H](Cc1ccccc1)NC(=O)[C@H](CC(N)=O)NC(=O)c1ccc2ccccc2n1` [Compound 27], the pIC50 is less than 6.30.

In the case of `NC(=O)C[C@H](NC(=O)c1ccc2ccccc2n1)C(=O)N[C@@H](Cc1ccccc1)[C@H](O)CSc1ccccc1C(=O)NC12CC3CC(CC(C3)C1)C2` [Compound 30], the pIC50 was less than 7.30.

With `CC(C)(C)NC(=O)c1ccccc1SC[C@H](O)[C@H](Cc1ccccc1)NC(=O)[C@@H]1CCCN1C(=O)c1ccc2ccccc2n1` [Compound 32], the pIC50 was less than 7.30.

`CC(C)(C)NC(=O)c1ccccc1SC[C@H](O)[C@H](Cc1ccccc1)NC(=O)[C@H](Cc1ccccc1)NC(=O)c1ccc2ccccc2n1` [Compound 33]: the pIC50 is less than 6.30.

As for `CN(C)C(=O)C[C@H](NC(=O)c1ccc2ccccc2n1)C(=O)N[C@@H](Cc1ccccc1)[C@@H](O)CSc1ccccc1C(=O)NC(C)(C)C` [Compound 41], the pIC50 was less than 7.00.

Turning to `COc1ccc(C[C@H](NC(=O)c2ccc3ccccc3n2)C(=O)N[C@@H](Cc2ccccc2)[C@@H](O)CSc2ccccc2C(=O)NC(C)(C)C)cc1` [Compound 43], the pIC50 was less than 7.00.

Turning to `CSCC[C@H](NC(=O)c1ccc2ccccc2n1)C(=O)N[C@@H](Cc1ccccc1)[C@@H](O)CSc1ccccc1C(=O)NC(C)(C)C` [Compound 44], the pIC50 was less than 7.00.

For `CC(C)(C)NC(=O)c1ccccc1S(=O)(=O)C[C@H](O)[C@H](Cc1ccccc1)NC(=O)[C@H](CCS(C)(=O)=O)NC(=O)c1ccc2ccccc2n1` [Compound 45], the pIC50 was less than 7.00.

`CC(C)(C)NC(=O)c1ccccc1SC[C@H](O)[C@H](Cc1ccccc1)NC(=O)[C@@H](CC(N)=O)NC(=O)c1ccc2ccccc2n1` [Compound 47]: the pIC50 was less than 7.00.

In the case of `CC(C)(C)NC(=O)c1ccccc1SC[C@H](O)[C@H](Cc1ccccc1)NC(=O)[C@H](CCC(N)=O)NC(=O)c1ccc2ccccc2n1` [Compound 48], the pIC50 was less than 7.00.

As to `CC(C)(C)NC(=O)c1ccccc1SC[C@H](O)[C@H](Cc1ccccc1)NC(=O)[C@H](Cc1c[nH]c2ccccc12)NC(=O)c1ccc2ccccc2n1` [Compound 51], the pIC50 was less than 8.30.

Take `CCn1cc(C(=O)N[C@@H](CC(N)=O)C(=O)N[C@@H](Cc2ccccc2)[C@@H](O)CSc2ccccc2C(=O)NC(C)(C)C)c(=O)c2ccc(C)nc21` [Compound 53]: the pIC50 was less than 7.00.

Take `CC(C)(C)NC(=O)c1ccccc1SC[C@H](O)[C@H](Cc1ccccc1)NC(=O)[C@H](CC(N)=O)NC(=O)c1ccccn1` [Compound 54]: the pIC50 is less than 7.00.

Regarding `CC(C)(C)NC(=O)c1ccccc1SC[C@H](O)[C@H](Cc1ccccc1)NC(=O)[C@H](CC(N)=O)NC(=O)c1cccc[n+]1[O-]` [Compound 55], the pIC50 was less than 7.00.

As to `CC(C)(C)NC(=O)c1ccccc1SC[C@H](O)[C@H](Cc1ccccc1)NC(=O)[C@H](CC(N)=O)NC(=O)c1ccc(O)cn1` [Compound 56], the pIC50 is less than 7.00.

Consider `CC(C)(C)NC(=O)c1ccccc1SC[C@H](O)[C@H](Cc1ccccc1)NC(=O)[C@H](CC(N)=O)NC(=O)c1ccc[n+]([O-])c1` [Compound 57], for which the pIC50 was less than 7.00.

Consider `CC(C)(C)NC(=O)c1ccccc1SC[C@H](O)[C@H](Cc1ccccc1)NC(=O)[C@H](CC(N)=O)NC(=O)c1cccnc1O` [Compound 58], for which the pIC50 is less than 7.00.

`CC(C)(C)NC(=O)c1ccccc1OC[C@@H](O)[C@@H](NC(=O)[C@H](CC(N)=O)NC(=O)c1ccc2ccccc2n1)c1ccccc1` [Compound 75]: the pIC50 was less than 6.30.

With `COc1ccc(C[C@H](NC(=O)OC(C)(C)C)C(=O)N[C@@H](Cc2ccccc2)[C@@H](O)CSc2ccccc2C(=O)NC(C)(C)C)cc1` [IN 2], the pIC50 was less than 7.00.

For the molecule `CC(C)(C)NC(=O)c1ccccc1SC[C@H](O)[C@H](Cc1ccccc1)NC(=O)[C@H](CCC(N)=O)NC(=O)OC(C)(C)C` [IN 3], the pIC50 was less than 7.00.

Turning to `CC(C)[C@H](NC(=O)OC(C)(C)C)C(=O)N[C@@H](Cc1ccccc1)[C@@H](O)CSc1ccccc1C(=O)NC(C)(C)C` [IN 4], the pIC50 is less than 7.00.

Consider `CSCC[C@H](NC(=O)OC(C)(C)C)C(=O)N[C@@H](Cc1ccccc1)[C@@H](O)CSc1ccccc1C(=O)NC(C)(C)C` [IN 5], for which the pIC50 is less than 7.00.

As for `CC(C)(C)NC(=O)c1ccccc1SC[C@H](O)[C@H](Cc1ccccc1)NC(=O)[C@H](Cc1c[nH]c2ccccc12)NC(=O)OC(C)(C)C` [IN 6], the pIC50 was less than 7.00.

Staying with this experiment, now noted: intermediate compound; read-out: IC50 in Test 1, Inhibition of Proteolytic Activity of HIV-1-Protease.
On to `CC(C)(C)NC(=O)c1ccccc1SCC(O)C(Cc1ccccc1)NC(=O)OC(C)(C)C` (stereo not drawn), for which the pIC50 is 5.52.
